Measured values: patent publication US20240239883A1, “METHODS OF TREATING HOMOLOGOUS RECOMBINATION DEFICIENT CANCER” (ASTRAZENECA AB, priority 2020, published 2024)
“And” between values parts separate entries of the source, which are not always exact repeats. Equal values may be shown once.

Legend:
[1] = in vivo
Experimental: The study design was put into practice as the PAOLA-1/ENGOT-ov25 trial (NCT02477644), which was a randomised, double-blind, international phase III trial that enrolled patients with newly diagnosed, FIGO stage III-IV, high-grade serous or endometrioid ovarian cancer, fallopian tube or primary peritoneal cancer.
Patients were randomized in a 2:1 ratio to the treatments as specified below: • 1. Olaparib tablets orally 300 mg twice daily (bd) • 2. Placebo tablets orally 300 mg bd
The “overall study duration” phase was defined as from the first dose of olaparib or placebo until the last dose of olaparib or placebo+30 days (to account for the 30 day follow-up period).
Common Terminology Criteria for Adverse Events (CTCAE) (version 4.03) defines Grade 1 hypertension as having systolic BP 120-139 mmHg or diastolic BP 80-89 mm Hg; Grade 2 as having systolic BP 140-159 mmHg or diastolic BP 90-99 mm Hg, or recurrent or persistent (≥24 hrs) symptomatic increase by >20 mm Hg (diastolic) or to >140/90 mmHg; Grade 3 as having systolic BP ≥160 mmHg or diastolic BP ≥100 mmHg; Grade 4 hypertension as having life-threatening consequences, e.g., requiring urgent intervention; and Grade 5 hypertension as death.
An adverse event considered “serious” if, in the view of either the investigator or sponsor, it results in any of the following outcomes: death, a life-threatening adverse event, inpatient hospitalization or prolongation of existing hospitalization, or a persistent or significant incapacity or substantial disruption of the ability to conduct normal life functions.
Common Terminology Criteria for Adverse Events (CTCAE) (version 4.03) defines Grade 1 proteinuria as urine dipstick 1+ or <1.0 grams of protein per 24 hours; Grade 2 as urine dipstick 2+ or 1.0-3.4 grams of protein per 24 hours; Grade 3 as urine dipstick 4+ or ≥3.5 grams of protein per 24 hours.

[2] = cited from earlier work
[3] = system: patients with newly diagnosed, FIGO stage III-IV, high-grade serous or endometrioid ovarian cancer, fallopian tube or primary peritoneal cancer; assay: PAOLA-1/ENGOT-ov25 phase III trial, first line maintenance: progression-free survival and other efficacy variables; type: in vivo, human
Experimental: Olaparib tablets orally 300 mg twice daily (bd) • 2. Placebo tablets orally 300 mg bd
Patients included in the study were female patients with newly diagnosed advanced (FIGO (International Federation of Gynaecology and Obstetrics) Stage IIIB, IIIC or IV) ovarian cancer, primary peritoneal cancer and/or fallopian tube cancer that was histologically confirmed as: (a) high-grade serous, or (b) high-grade endometrioid, or (c) other epithelial non mucinous ovarian cancer in a patient with gBRCA1 or 2 deleterious mutation.
Additionally, patents had completed first line platinum-taxane chemotherapy prior to randomization. Specifically, the platinum-taxane based regimen consisted of a minimum of 6 and a maximum of 9 treatment cycles; however, if platinum-based therapy was discontinued early as a result of non-haematological toxicity specifically related to the platinum regimen, (i.e., neurotoxicity, hypersensitivity, etc.), patients must have received a minimum of 4 cycles of the platinum regimen. Intravenous, intraperitoneal, or neoadjuvant platinum based chemotherapy was also allowed; for weekly therapy, 3 weeks was considered to be 1 cycle.
Prior to randomization, patients had no evidence of disease (NED) or had been in clinical complete response (CR) or in partial response (PR) following first line treatment. There should have been no clinical evidence of disease progression (physical exam, imaging, or cancer antigen-125 (CA-125)) throughout the first line treatment and prior to study randomization.
Finally, patients were randomized at least 3 weeks and no more than 9 weeks after their last dose of chemotherapy (last dose is the day of the last infusion) and all major toxicities from the previous chemotherapy were resolved.
Tumor samples from the patients were tested post-randomization (but prior to database lock) using the Myriad myChoice® HRD Plus test in order to investigate efficacy in pre-defined biomarker subgroups. The Myriad myChoice® HRD Plus test is delivered from a single central laboratory in Salt Lake City, Utah; it detects and classifies the following biomarkers simultaneously in tumor tissue:
Myriad HRD status is based on the Myriad HRD score and tBRCAm status. A positive Myriad HRD status is determined either by presence of a tBRCA1/2 mutation or by an HRD score at or above a pre-specified cut-off in the absence of a BRCA1/2 mutation. The Myriad HRD cut-off of 42 detects 95% of BRCAm tumors and has been extensively investigated as a biomarker of PARP inhibitor benefit in ovarian cancer. The cut-off of 42 has now been FDA-approved for another PARP inhibitor for the treatment of relapsed ovarian cancer (Myriad myChoice® HRD test offered under the name myChoice® CDx). Reducing the cut-off to 33, enables detection of 99% of BRCAm tumors and retrospective analyses from 2 clinical studies raised the possibility that a 33 cut-off may provide greater precision in determining patients who may benefit from PARP inhibitor treatment.
The data cut-off (DCO) for the analysis of progression-free survival (PFS) PFS is time from randomization to first progression or death according to modified Response Evaluation Criteria in Solid Tumours (RECIST version 1.1). PFS took place when 474 progression events had occurred (58.8% maturity), approximately 45 months after the first patient was randomized. At this DCO, all efficacy, QoL and safety variables were analyzed, as appropriate, based on the amount of data available at that time.
PFS (based on investigator assessment) was the primary variable for the study and was analyzed based on the primary data cut-off using the investigator assessment population.

[4] = overall population, KM estimate
[5] = overall population, KM estimate, listed as placebo-plus-bevacizumab
[6] = overall population, KM estimate, listed as placebo/bevacizumab

bevacizumab: recombinant humanized monoclonal IgG1 antibody, vascular endothelial growth factor inhibitor
incidence of CTCAE Grade ≥3 hypertension [1]: about 30% | overall incidence of proteinuria (all grades) ([2]; Study BO17705): 20% | patients in whom proteinuria did not resolve ([2]; after median follow-up of 11.2 months): 40% | proteinuria required discontinuation of bevacizumab ([2]; of the patients who developed proteinuria): 30%

O=C(c1cc(Cc2n[nH]c(=O)c3ccccc23)ccc1F)N1CCN(C(=O)C2CC2)CC1 [olaparib, 4-[(3-{[4-(cyclopropane-carbonyl)piperazine-1-yl]carbonyl}-4-fluorophenyl)methyl]-2H-phthalazin-1-one]
progression free survival greater than for subjects receiving bevacizumab alone ([3]; overall subject population, olaparib in addition to bevacizumab): at least 4 months

Placebo/bevacizumab: Comparator arm: placebo tablets plus bevacizumab 15 mg/kg every 3 weeks (bevacizumab alone, without olaparib)
Hypertension (serious adverse events) [1]: 35 (13.1) Number (%) of patients | Hypertension CTCAE all Grades [1]: 160 (59.9) Number (%) of patients | Proteinuria CTCAE Grade 3 or higher [1]: 1 (0.4) Number (%) of patients | Proteinuria CTCAE all Grades [1]: 40 (15.0) Number (%) of patients | Vascular disorders (serious adverse events) [1]: 35 (13.1) Number (%) of patients | adverse drug reactions of proteinuria [1]: 15.4% | patients who reported adverse events (AEs) [1]: 95.9% | patients not classified as having had a second progression at the time of analysis (PFS2) ([3]; PFS2 data 39.1% mature): 55.8% | median time until the first subsequent treatment ([3]; all patients): 18.5 months | rate of freedom from second disease progression and death at 18 months ([3]; interim analysis of second progression-free survival, data maturity 39%, Kaplan-Meier estimate): 80% | patients for whom progression occurred on treatment ([3]; overall population): 71.6% | patients not classified as having progressed at the time of analysis ([3]; overall population): 27.9% | n (%) of events (PFS) ([3]; overall population (FAS), investigator assessment, modified RECIST 1.1 or death, primary data cut-off): 194 (72.1) n (%) | Progression free at 6 months [3, 4]: 85.3% | Progression free at 12 months [3, 4]: 65.6% | Progression free at 18 months [3, 4]: 45.8% | Progression free at 24 months [3, 4]: 27.7% | Progression free at 12 months [3, 5]: 66% | Progression free at 18 months [3, 5]: 46% | Progression free at 24 months [3, 5]: 28% | Progression free at 12 months [3, 6]: 65.6% | Progression free at 24 months [3, 6]: 27.7% | Median PFS (95% CI) ([3]; overall population, KM techniques): 16.6 months and 16.6 (15.4, 18.6) months | proportion of patients with PFS events ([3]; overall population, at data cut-off (474 events, 58.8% maturity)): 72.1% | median progression-free survival ([3]; patients with HRD-negative tumors (277 patients)): 16.2 months | median progression-free survival ([3]; patients with HRD-negative tumors or whose tumor HRD status was unknown (419 patients)): 16.0 months | median progression-free survival ([3]; patients with HRD-positive tumors that did not have BRCA mutations (FIG. 3D)): 16.6 months | median progression-free survival ([3]; patients with a tumor BRCA mutation (FIG. 3A)): 21.7 months | median progression-free survival ([3]; patients with tumors positive for HRD (score ≥42 on myChoice HRD Plus or tumor BRCA mutation) (FIG. 3C)): 17.7 months | median progression-free survival ([3]; patients without a tumor BRCA mutation (FIG. 3B)): 16.0 months
